The text below walks through data of patent publication US11135181B2, “Treatment for depression and depressive disorders” (Medlab IP Pty Ltd, priority 2014, dated 2021).

Common to all, as to assay type: in vivo, human
The test system of experiment [1] is subjects diagnosed with depression. Description: Beck Depression Inventory (BDI) in subjects with treatment-resistant depression. The text has this: BDI is a 21-item self-report inventory that is widely used to assess depression. It has high internal constancy and correlates highly with other self-report measures of depression (α=0.60−0.90).
(§1) The study received ethical approval from the Medical Research Ethics Committee (MREC) University of Queensland, Australia, within the guidelines of the National Statement on Ethical Conduct in Human Research. All participants provided written informed consent for the study.
The subjects were selected for inclusion in the study as follows. At the completion of a 15 week study investigating SAMe treatment of depression, suboptimal treatment responders (n=8) were inducted into the present orotate study after a 2 week wash out period. Sub-optimal treatment responders were defined as those still experiencing clinical depression by the SAMe study endpoint, which consisted of six participants with major depression and two with moderate depression. The subjects comprised six females between 33 to 70 years of age (mean age of 53 years) and two males between 48-54 years of age (mean age of 51 years). The orotate study was conducted as a single group study for 8 weeks (mean time for SAMe responders) with a focus was on efficacy. […]
(§2) Depression was monitored in the treated subjects over the eight week course using a variety of well known methodologies: the Beck Depression Inventory (BDI); the Depression and Anxiety Stress Scale (DASS); Outcome Questionnaire-45 (OQ45); the Warwick-Edinburgh Mental Well-Being Scale (WBS); and a Quality of Life (QoL score).
(§3) Three subjects were administered a probiotic supplement containing magnesium orotate for eight weeks, and measures of depression (BDI and OQ45) assessed. […]
(§4) BDI and OQ45 were assessed for each subject as described in Example 1, at the beginning of the study prior to the initiation of treatment and again at the completion of eight weeks of combined magnesium orotate plus probiotic administration. […]

For experiment [2] the test system is unchanged. Description: Depression and Anxiety Stress Scale (DASS) in subjects with treatment-resistant depression.
Text: The DASS short form is a 21 item self-report scale designed to measure depression and anxiety and was used here as a secondary self-report assessment. The DASS has high internal consistency and yields meaningful discriminations in a variety of settings (α=0.88-0.96).
as §1
(§5) The subjects were selected for inclusion in the study as follows. At the completion of a 15 week study investigating SAMe treatment of depression, suboptimal treatment responders (n=8) were inducted into the present orotate study after a 2 week wash out period. Sub-optimal treatment responders were defined as those still experiencing clinical depression by the SAMe study endpoint, which consisted of six participants with major depression and two with moderate depression. The subjects comprised six females between 33 to 70 years of age (mean age of 53 years) and two males between 48-54 years of age (mean age of 51 years). The orotate study was conducted as a single group study for 8 weeks (mean time for SAMe responders) with a focus was on efficacy.
Inclusion criteria also required a primary diagnosis of major depression that has a verifiable history of being treatment resistant, current medication type being SSRIs (for standardisation purposes), and at least 18 years of age with no upper age limit. Participants were also asked not to take any nutritional supplements such as B group vitamins or other supplements that have antidepressant effects (a list was provided to participants). […]
as §2

The test system is the same in experiment [3]. Briefly: Outcome Questionnaire-45 (OQ45) in subjects with treatment-resistant depression. The note with it: n=8.
Text: OQ45 is a self-report symptom and distress inventory designed as an independent measure of symptom distress and functioning to assess the response to intervention at regular intervals such as on a weekly bases (α=0.93, & κ>0.83). The OQ45 consists of 45 items with a five point scale. A high total score […] indicates a high level of symptom distress (anxiety, depression, and somatic, work and social role problems). Lower scores indicate less severity of problems. Average community non-clinical scores cut off (CO) occur at about >63, and changes of 14 points in either direction are typically considered clinically significant change and are reliable. […]
as §2, §3, §4

For experiment [4] the test system is unchanged. Briefly: Warwick-Edinburgh Mental Well-Being Scale (WBS) in subjects with treatment-resistant depression.
Text: WBS has 14 items and assesses feelings and thoughts associated with mood (α=0.91) with higher scores indicate better mood. It has a different factor structure to the BDI and DASS and was used in this study as a measure of mood improvement.
as §1
The subjects were selected for inclusion in the study as follows. At the completion of a 15 week study investigating SAMe treatment of depression, suboptimal treatment responders (n=8) were inducted into the present orotate study after a 2 week wash out period. Sub-optimal treatment responders were defined as those still experiencing clinical depression by the SAMe study endpoint, which consisted of six participants with major depression and two with moderate depression. […]
as §2

Experiment [5] shares this test system. Briefly: Quality of Life (QoL) score in subjects with treatment-resistant depression.
Text: QoL has 16 items and evaluates perceived satisfaction with life over a number of domains (α=0.85). QoL typically provides an important evaluation of perception of life circumstances and stressors.
as §1, §5
(§6) Inclusion criteria also required a primary diagnosis of major depression that has a verifiable history of being treatment resistant, current medication type being SSRIs (for standardisation purposes), and at least 18 years of age with no upper age limit. Participants were also asked not to take any nutritional supplements such as B group vitamins or other supplements that have antidepressant effects (a list was provided to participants).
The magnesium orotate was administered in capsule form, each capsule comprising 400 mg magnesium orotate. […]
as §2

For experiment [6] the test system is unchanged. Briefly: Clinical depression status at study endpoint. The settings on record: 8 weeks, 1600 mg per day.
Text: as §1, §5, §6
The magnesium orotate was administered in capsule form, each capsule comprising 400 mg magnesium orotate. The daily dose of 1600 mg magnesium orotate was provided as two capsules taken in the morning and two capsules taken at night.

The mark [7] stands for this setting: after 8 weeks of 1600 mg per day oral capsules, n=8.

Take magnesium orotate: in experiment [1] (8 weeks, 1600 mg per day, p=0.021), the “BDI change score (mean, pre- versus post treatment)” value is given as 19. For the same substance, the “BDI mean score, Post-Treatment” value in experiment [1] (setting [7]) came to 14.1. In experiment [1] (baseline before treatment, n=8 SAMe suboptimal responders on SSRIs), the “BDI mean score, Pre-Treatment” value amounted to 33.8. Also, in experiment [2] (setting [7]), the “DASS mean score, Post-Treatment” value is 25.2. In addition, in experiment [2] (baseline before treatment, n=8), the “DASS mean score, Pre-Treatment” value came to 44.7. The “DASS paired difference, mean (DASS-DASS8)” value in experiment [2] (baseline minus week 8, 1600 mg per day, Sig. (2-tailed) .032) is on record as 19.5. In addition, in experiment [3] (after 8 weeks of 1600 mg per day oral capsules), the “OQ45 mean score, Post-Treatment” value was found to be 54.2. The “OQ45 mean score, Pre-Treatment” value in experiment [3] (baseline before treatment) is recorded as 86.6. Moreover, the “WBS mean score, Pre-Treatment” value in experiment [4] (baseline before treatment, n=8, higher score = better mood) came out at 34.6. For the same substance, the “WBS paired difference, mean (MWBS-WMBS8)” value in experiment [4] (baseline minus week 8, 1600 mg per day, Sig. (2-tailed) .025) is given as −11. The “QoL mean score, Post-Treatment” value in experiment [5] (setting [7]) came out at 76.0. Further, the “QoL mean score, Pre-Treatment” value in experiment [5] (baseline before treatment, n=8) was determined as 55.2. Besides, in experiment [5] (baseline minus week 8, 1600 mg per day, Sig. (2-tailed) .027), the “QoL paired difference, mean (QoL-QoL8)” value was −20.75. Also, in experiment [6], the “share of the group in clinical remission by the endpoint” value was 50%, the “share of the group mildly depressed” value amounted to 10%, the “share of the group that remained moderately depressed” value is given as 30% and the “share of the group without any clinical change” value was determined as 10%.
